Measurements taken from PubChem BioAssay (NCI).
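Test compounds were applied to cells in 96-well plates for 48 hours at 5 doses. TGI: total growth inhibition.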

How the values were obtained:
Experiment in all cases: inhibition of tumour cell growth, NCI panel, 48 h
SF-295 CNS = test system: SF-295 CNS
RPMI-8226 leukemia = test system: RPMI-8226 leukemia
MDA-N = test system: MDA-N
MOLT-4 leukemia = test system: MOLT-4 leukemia
HS 578T breast = test system: HS 578T breast
CAKI-1 renal = test system: CAKI-1 renal
UO-31 renal = test system: UO-31 renal
RXF 393 renal = test system: RXF 393 renal
HCT-15 colon = test system: HCT-15 colon
UACC-62 melanoma = test system: UACC-62 melanoma
786-0 renal = test system: 786-0 renal
SN12C renal = test system: SN12C renal
MALME-3M melanoma = test system: MALME-3M melanoma
A549 NSCLC = test system: A549 NSCLC
SK-MEL-2 melanoma = test system: SK-MEL-2 melanoma
CCRF-CEM leukemia = test system: CCRF-CEM leukemia
ACHN renal = test system: ACHN renal
OVCAR-3 ovarian = test system: OVCAR-3 ovarian
IGROV1 ovarian = test system: IGROV1 ovarian
SR leukemia = test system: SR leukemia
OVCAR-4 ovarian = test system: OVCAR-4 ovarian
K-562 leukemia = test system: K-562 leukemia
NCI-H522 lung = test system: NCI-H522 lung
SW-620 colon = test system: SW-620 colon
BT-549 breast = test system: BT-549 breast
SNB-75 CNS = test system: SNB-75 CNS
HL-60(TB) leukemia = test system: HL-60(TB) leukemia
SK-OV-3 ovarian = test system: SK-OV-3 ovarian
DU-145 prostate = test system: DU-145 prostate
EKVX NSCLC = test system: EKVX NSCLC
MCF7 breast = test system: MCF7 breast
HT29 colon = test system: HT29 colon
KM12 colon = test system: KM12 colon
MDA-MB-231 breast = test system: MDA-MB-231 breast
NCI/ADR-RES ovarian = test system: NCI/ADR-RES ovarian
A498 renal = test system: A498 renal
SF-268 CNS = test system: SF-268 CNS
COLO 205 colon = test system: COLO 205 colon
SK-MEL-28 melanoma = test system: SK-MEL-28 melanoma
HOP-92 NSCLC = test system: HOP-92 NSCLC
HCT-116 colon = test system: HCT-116 colon
SNB-19 CNS = test system: SNB-19 CNS
MDA-MB-435 = test system: MDA-MB-435
M14 melanoma = test system: M14 melanoma
OVCAR-5 ovarian = test system: OVCAR-5 ovarian
LOX IMVI melanoma = test system: LOX IMVI melanoma
T-47D breast = test system: T-47D breast
TK-10 renal = test system: TK-10 renal
UACC-257 melanoma = test system: UACC-257 melanoma
NCI-H460 lung = test system: NCI-H460 lung
NCI-H23 lung = test system: NCI-H23 lung
OVCAR-8 ovarian = test system: OVCAR-8 ovarian
HOP-62 NSCLC = test system: HOP-62 NSCLC
SK-MEL-5 melanoma = test system: SK-MEL-5 melanoma
SF-539 CNS = test system: SF-539 CNS
U251 CNS = test system: U251 CNS
NCI-H226 lung = test system: NCI-H226 lung
PC-3 prostate = test system: PC-3 prostate

Cn1c(N)c(N=Nc2ccc(S(N)(=O)=O)cc2)c(=O)n(C)c1=O
TGI (SF-295 CNS): > 100 µM
TGI (RPMI-8226 leukemia): > 100 µM
TGI (MDA-N): > 100 µM
TGI (MOLT-4 leukemia): > 100 µM
TGI (HS 578T breast): 99.1 µM
TGI (CAKI-1 renal): > 100 µM
TGI (UO-31 renal): > 100 µM
TGI (RXF 393 renal): > 100 µM
TGI (HCT-15 colon): > 100 µM
TGI (UACC-62 melanoma): > 100 µM
TGI (786-0 renal): > 100 µM
TGI (SN12C renal): > 100 µM
TGI (MALME-3M melanoma): > 100 µM
TGI (A549 NSCLC): > 100 µM
TGI (SK-MEL-2 melanoma): > 100 µM
TGI (CCRF-CEM leukemia): > 100 µM
TGI (ACHN renal): > 100 µM
TGI (OVCAR-3 ovarian): > 100 µM
TGI (IGROV1 ovarian): > 100 µM
TGI (SR leukemia): > 100 µM
TGI (OVCAR-4 ovarian): > 100 µM
TGI (K-562 leukemia): > 100 µM
TGI (NCI-H522 lung): > 100 µM
TGI (SW-620 colon): > 100 µM
TGI (BT-549 breast): > 100 µM
TGI (SNB-75 CNS): 56.2 µM
TGI (HL-60(TB) leukemia): > 100 µM
TGI (SK-OV-3 ovarian): > 100 µM
TGI (DU-145 prostate): > 100 µM
TGI (EKVX NSCLC): > 100 µM
TGI (MCF7 breast): > 100 µM
TGI (HT29 colon): > 100 µM
TGI (KM12 colon): > 100 µM
TGI (MDA-MB-231 breast): > 100 µM
TGI (NCI/ADR-RES ovarian): > 100 µM
TGI (A498 renal): > 100 µM
TGI (SF-268 CNS): > 100 µM
TGI (COLO 205 colon): > 100 µM
TGI (SK-MEL-28 melanoma): > 100 µM
TGI (HOP-92 NSCLC): > 100 µM
TGI (HCT-116 colon): > 100 µM
TGI (SNB-19 CNS): > 100 µM
TGI (MDA-MB-435): > 100 µM
TGI (M14 melanoma): > 100 µM
TGI (OVCAR-5 ovarian): > 100 µM
TGI (LOX IMVI melanoma): > 100 µM
TGI (T-47D breast): > 100 µM
TGI (TK-10 renal): > 100 µM
TGI (UACC-257 melanoma): > 100 µM
TGI (NCI-H460 lung): > 100 µM
TGI (NCI-H23 lung): > 100 µM
TGI (OVCAR-8 ovarian): > 100 µM
TGI (HOP-62 NSCLC): > 100 µM
TGI (SK-MEL-5 melanoma): > 100 µM
TGI (SF-539 CNS): > 100 µM
TGI (U251 CNS): > 100 µM
TGI (NCI-H226 lung): > 100 µM
TGI (PC-3 prostate): > 100 µM

CC(=S)NC1C(Oc2ccc3c(C)cc(=O)oc3c2)OC(CO)C(O)C1O (centres undefined)
TGI (SF-295 CNS): > 100 µM
TGI (RPMI-8226 leukemia): > 100 µM
TGI (MDA-N): > 100 µM
TGI (MOLT-4 leukemia): > 100 µM
TGI (HS 578T breast): > 100 µM
TGI (CAKI-1 renal): > 100 µM
TGI (UO-31 renal): > 100 µM
TGI (RXF 393 renal): > 100 µM
TGI (HCT-15 colon): > 100 µM
TGI (UACC-62 melanoma): > 100 µM
TGI (SN12C renal): > 100 µM
TGI (A549 NSCLC): > 100 µM
TGI (SK-MEL-2 melanoma): > 100 µM
TGI (CCRF-CEM leukemia): > 100 µM
TGI (ACHN renal): > 100 µM
TGI (OVCAR-3 ovarian): > 100 µM
TGI (IGROV1 ovarian): > 100 µM
TGI (SR leukemia): > 100 µM
TGI (OVCAR-4 ovarian): > 100 µM
TGI (K-562 leukemia): > 100 µM
TGI (SW-620 colon): > 100 µM
TGI (BT-549 breast): > 100 µM
TGI (SNB-75 CNS): > 100 µM
TGI (HL-60(TB) leukemia): > 100 µM
TGI (SK-OV-3 ovarian): > 100 µM
TGI (DU-145 prostate): > 100 µM
TGI (EKVX NSCLC): > 100 µM
TGI (MCF7 breast): > 100 µM
TGI (HT29 colon): > 100 µM
TGI (KM12 colon): > 100 µM
TGI (MDA-MB-231 breast): > 100 µM
TGI (NCI/ADR-RES ovarian): > 100 µM
TGI (A498 renal): > 100 µM
TGI (SK-MEL-28 melanoma): > 100 µM
TGI (HOP-92 NSCLC): > 100 µM
TGI (HCT-116 colon): > 100 µM
TGI (SNB-19 CNS): > 100 µM
TGI (MDA-MB-435): > 100 µM
TGI (OVCAR-5 ovarian): > 100 µM
TGI (LOX IMVI melanoma): > 100 µM
TGI (T-47D breast): > 100 µM
TGI (TK-10 renal): > 100 µM
TGI (UACC-257 melanoma): > 100 µM
TGI (NCI-H460 lung): > 100 µM
TGI (OVCAR-8 ovarian): > 100 µM
TGI (HOP-62 NSCLC): > 100 µM
TGI (SK-MEL-5 melanoma): > 100 µM
TGI (SF-539 CNS): > 100 µM
TGI (U251 CNS): > 100 µM
TGI (NCI-H226 lung): > 100 µM
TGI (PC-3 prostate): > 100 µM
